Test results reported in US9181161B2, “Use of dicyclohexylmethanol derivatives having antimicrobial properties” (MERCK PATENT GmbH, priority 2012, dated 2015).

Assays:
Format in all cases: cell-based
[1] = tested on: Propionibacterium acnes (ATCC 6919); assay: Microbe count after incubation, carried out in accordance with Example 1; settings: for Final microbe count: as Example 1, sample 2.0% in water/ethanol (12% of ethanol), initial count 8.3 × 10^4; for Δlog: t24 h vs t0
Procedure: (§1) For sample preparation, substances I-1 and I-5 being investigated are homogeneously dispersed in an amount of 2.0% in a water/ethanol mixture (12% of ethanol) (=sample). A suspensions of Staphylococcus epidermidis (ATCC 12228) having an optical density of 1.0 in CASO broth (Merck 1.05459) is diluted 1:10000 with CASO broth. 500 μl of sample are added to […] of microorganism suspension, and the mixture is incubated at 35° C. for 24 h or 48 h. After the incubation, the test batches are diluted to −6 in 10 unit steps, and 0.1 ml of each is plated-out on CASO agar (Merck 1.05458) and incubated at 35° C. for 24 h.
(§2) In order to determine the initial microbe count, 0.1 ml of the bacteria suspension used are plated-out on CASO agar (Merck 1.05458) and incubated at 35° C. for 24 h.
(§3) The colonies are subsequently counted, and the microbe count per ml is determined compared with the negative control (12% of ethanol in water).
The experiment is carried out in accordance with Example 1. Instead of the action on Staphylococcus epidermidis, the action of substances I-1 and I-5 on the test microbe Propionibacterium acnes is investigated.
(§4) The concentrations indicated are the final use concentrations. In order to prepare the stock solution, double the final concentration are prepared in the solvent indicated. This is subsequently diluted 1:2 with the corresponding microbe suspension. In the case of Aspergillus brasiliensis, the microbe count determination is exceptionally carried out after 48 h, in the case of Malassezia furfur after 72 h.

[2] = tested on: Staphylococcus epidermidis (ATCC 12228); assay: Determination of the bacteriostatic action, microbe count after incubation; settings: for Final microbe count: sample 2.0% in water/ethanol (12% of ethanol), mixed 1:1 with suspension, 35° C., 24 h or 48 h, initial count 1.6 × 10^4
Procedure: as §1, §2, §3, §4

Candida albicans = assay: Microbe count after incubation (Example 3); settings: 1.0% final conc., H2O (12% of ethanol)
Procedure: as §1, §2, §3, §4

Staphylococcus aureus = assay: Microbe count after incubation (Example 3); settings: 1.0% final conc., H2O (12% of ethanol)
Procedure: as §1, §2, §3, §4

Aspergillus brasiliensis = assay: Microbe count after incubation (Example 3); settings: 1.0% final conc., H2O (12% of ethanol)
Procedure: as §1, §2, §3, §4

Malassezia furfur = assay: Microbe count after incubation (Example 3); settings: 1.0% final conc., H2O
Procedure: as §1, §2, §3, §4

Salmonella enterica = assay: Microbe count after incubation (Example 3); settings: 0.5% final conc., H2O
Procedure: as §1, §2, §3, §4

Corynebacterium xerosis = assay: Microbe count after incubation (Example 3); settings: 0.5% final conc., H2O
Procedure: as §1, §2, §3, §4

Row | SMILES | Final microbe count [1] [CFU/ml] | Final microbe count [2] | Microbe count t24 h ([1]; 0.25% final conc., H2O, t0 5.4 × 10^5) | Δlog ([1]; 0.25% final conc., H2O) | Microbe count t24 h ([1]; 0.5% final conc., H2O (12% of ethanol), t0 8.3 × 10^4) | Δlog ([1]; 0.5% final conc., H2O (12% of ethanol)) | Microbe count t24 h (Candida albicans; t0 6.0 × 10^3) | Δlog (Candida albicans; t24 h vs t0) | Microbe count t24 h (Staphylococcus aureus; t0 7.2 × 10^4) | Δlog (Staphylococcus aureus; t24 h vs t0) | Microbe count t24 h (Aspergillus brasiliensis; count after 48 h, t0 8.0 × 10^2) | Δlog (Aspergillus brasiliensis; count after 48 h vs t0) | Microbe count t24 h (Malassezia furfur; count after 72 h, t0 4.0 × 10^2) | Δlog (Malassezia furfur; count after 72 h vs t0) | Microbe count t24 h (Salmonella enterica; t0 1.0 × 10^6) | Δlog (Salmonella enterica; t24 h vs t0) | Microbe count t24 h (Corynebacterium xerosis; t0 1.0 × 10^6) | Δlog (Corynebacterium xerosis; t24 h vs t0) | Microbe count t24 h ([2]; 0.5% final conc., H2O (12% of ethanol), t0 1.6 × 10^4) | Δlog ([2]; 0.5% final conc., H2O (12% of ethanol), t24 h vs t0)
1 | COC1CCC(C(O)C2CCCCC2)C(O)C1 (stereo not shown) [Substance I-5, 2-(cyclohexylhydroxymethyl)-5-methoxy-cyclohexanol] | 0 | 7.0 × 10^3 CFU/ml |  |  |  |  |  |  |  |  |  |  |  |  |  |  |  |  |  | 
2 | OC1CCC(C(O)C2CCCCC2)CC1 (stereo not shown) [Substance I-1, 4-(cyclohexylhydroxymethyl)cyclohexanol] | 0 | 7.4 × 10^3 CFU/ml | 2.4 × 10^5 | −0.35 | 0 | −4.92 | 0 | −3.78 | 0 | −4.86 | 0 | −2.90 | 0 | −2.60 | 5.1 × 10^6 | +0.71 | 1.3 × 10^6 | +0.11 | 7.4 × 10^3 | −0.34
